Measured values reported in patent US5658938A, “Substituted 1H-imidazoles” (U C B S.A., priority 1994, dated 1997).
Counter-ions that a name gives are not always drawn. Like-named read-outs stand apart in the source and are kept apart here. Each block holds one molecule with its values, some of them ahead of it.

Assays:
[1] = system: coronary occlusion in the rat; experiment: Anti-ischemic and anti-hypertensive activity: coronary occlusion in the anesthetized rat (elevation of the T wave of the electrocardiogram, arterial pressure); assay type: in vivo, male albino rat of the Sprague-Dawley strain; conditions: for change in vivo at 3 µmol/kg / change in vivo at 1 µmol/kg: Rattus norvegicus, iv
Description: The cardiac anti-ischemic activity of compounds manifests itself by their capacity to oppose the elevation of the T wave of the electrocardiogram, induced by a coronary occlusion in the rat. Continuous monitoring of the arterial pressure also enables to reveal the anti-hypertensive effects. The animal used for the test is a male albino rat of the Sprague-Dawley strain, weighing 220 to 280 g. On the day of the experiment, the animal is anesthetized by intraperitoneal administration of pentobarbital (60 mg/kg), then placed under endotracheal intubation. A ligature system is fitted around the descending left anterior coronary artery according to the procedure of Johnston et el. (Can. J. Physiol. Pharmacol., 61 (1983), 1340-1353). After closing the thorax, three electrodes are arranged on the body of the animal ("V4" thoracic derivation), in order to continuously record the shape of the electrocardiogram signal (in particular the T wave). Catheters are introduced into the right carotid artery and the right jugular vein to measure the arterial pressure and to administer intravenously the compound tested or the vehicle solution. Four 45 second coronary occlusions are performed, separated by episodes of reperfusion of 30, 35 and 30 minutes respectively. The compound to be studied or the vehicle are administered intravenously in bolus, 30 minutes before occlusion 3. The T electrocardiographic signal and the arterial pressure are continuously measured during the entire experiment.
The effects of the compounds according to the invention are quantified by comparing the amplitude of the elevation of the T wave at occlusions 3 and 4 (that is 30 minutes and 60 minutes after administration) with its value at occlusion 2 (that is before administration).
the second column indicates the dose of compound administered, expressed in mole/kg;
the third and the fourth columns indicate the anti-ischemic effect caused by administering the compound tested. The anti-ischemic effect represents the reduction in the elevation of the T wave caused by coronary occlusions 3 and 4, expressed in % with respect to occlusion 2, before administration of the compound (ΔT3 and ΔT4 respectively);
the fifth and sixth columns indicate the anti-hypertensive effect caused by administration of the compound tested. The anti-hypertensive effect is expressed as the maximum lowering of arterial pressure, measured a) between 5 and 30 minutes, and b) between 30 and 60 minutes after intravenous injection of the compound tested (ΔPa and ΔPb respectively). This lowering is expressed in % with respect to the value measured before injection.

[2] = system: presynaptic α2 -adrenergic receptors; experiment: Inhibition of the contraction of the electrically stimulated guinea pig ileum (presynaptic α2-agonist activity); conditions: guinea pig ileum longitudinal muscle strips, electrical stimulation
Description: Longitudinal muscle strips attached to an isometric strain gauge are suspended in Tyrode's solution and are stretched under a tension of 1 g (G. M. Drew, Brit. J. Pharmacol. 64, (1978), 293-300; M. Andrejak et al., Naunyn-Schmiedeberg's Arch. Pharmacol. 314, (1980), 83-87).
Electrical stimulation of the parasympathetic nerves associated with the ileum fragments causes a contraction of the muscle. This contraction is reduced in the presence of a presynaptic α2 -agonist and the magnitude by which the contraction is reduced depends on the concentration of the agonist used. This effect is antagonised by the simultaneous presence of an α2 -antagonist such as alpha-yohimbine.
The IC30 concentration (in mole/l) that reduces by 30% the intensity of the contraction of the muscle is determined.

[3] = target: T1, postsynaptic α1 -adrenergic receptor (Rattus norvegicus, UniProt P23944); experiment: Postsynaptic α1-antagonist activity: inhibition of norepinephrine-induced contraction of the isolated aorta of the rat; conditions: read-out: ED30 (concentration which causes 30% inhibition of the contraction induced by norepinephrine)
T1 construct: isolated aorta of the rat; from tissue; host or cells: rat isolated aorta
T1 sequence (P23944 1-561): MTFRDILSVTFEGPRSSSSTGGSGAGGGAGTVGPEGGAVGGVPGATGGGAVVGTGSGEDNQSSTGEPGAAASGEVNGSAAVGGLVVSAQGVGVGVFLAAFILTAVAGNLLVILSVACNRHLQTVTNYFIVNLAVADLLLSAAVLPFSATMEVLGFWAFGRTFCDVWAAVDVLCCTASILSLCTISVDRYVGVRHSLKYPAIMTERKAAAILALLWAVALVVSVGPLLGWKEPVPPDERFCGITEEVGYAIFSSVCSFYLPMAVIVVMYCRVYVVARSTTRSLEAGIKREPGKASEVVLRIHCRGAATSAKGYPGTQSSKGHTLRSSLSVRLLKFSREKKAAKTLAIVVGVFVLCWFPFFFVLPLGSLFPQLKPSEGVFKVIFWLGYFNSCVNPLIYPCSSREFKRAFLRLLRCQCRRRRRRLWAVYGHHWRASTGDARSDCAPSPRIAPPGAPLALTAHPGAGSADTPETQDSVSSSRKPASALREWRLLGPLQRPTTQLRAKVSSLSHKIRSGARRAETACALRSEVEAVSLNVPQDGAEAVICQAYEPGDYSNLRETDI
Experimental: A non selective α-agonist substance such as norepinephrine induces a sustained contraction of the isolated aorta of the rat (J. M. Van Rossum Arch. Int. Pharmacodyn. 143, (1963), 299-330). This contraction can be inhibited by α1 -adrenergic blocking substances such as prazosin. In this test, a control contraction is carried out with norepinephrine at 3.2×10^-8 mole/l. After washing and stabilizing the preparation, the compound to be tested is added to the bath. Norepinephrine is added 5 minutes after the compound tested, and inhibition of the contraction induced by norepinephrine is measured. Next, inhibition of the contraction induced by norepinephrine is evaluated a second and third time in the presence of increasing concentrations of the compound tested.

male NMRI mice = experiment: Toxicity, Irwin's test; assay type: in vivo; conditions: intraperitoneal
Experimental: The toxicity of the compounds of the invention has been determined in male NMRI mice by means of Irwin's test (S. Irwin, Psychopharmacologia (Berl.), 13, (1968), 222-257).
Progressive doses of the product studied are administered intraperitoneally to groups of three mice until a lethal dose is reached (dose causing the death of two out of three animals in 48 hours). It follows from this Table that the compounds of the invention are not very toxic.

[4] = 0.5 h, read-out: ΔPa (maximum lowering of arterial pressure)
[5] = 0.5 h, read-out: ΔT3 (anti-ischemic effect: change in elevation of the T wave, occlusion 3 vs occlusion 2)
[6] = 1 h, read-out: ΔPb (maximum lowering of arterial pressure)
[7] = 1 h, read-out: ΔT4 (anti-ischemic effect: change in elevation of the T wave, occlusion 4 vs occlusion 2)

Structure (SMILES): COc1ccc2c(c1)CCCC2c1c[nH]cn1 (single isomer, unassigned; (+)) [Compound A, (+)-4-(1,2,3,4-tetrahydro-6-methoxy-1-naphthalenyl)-1H-imidazole]
change in vivo at 3 µmol/kg [1, 4]: -32%
change in vivo at 3 µmol/kg [1, 5]: -80%
change in vivo at 3 µmol/kg [1, 6]: -28%
change in vivo at 3 µmol/kg [1, 7]: -33%
IC30 (concentration that reduces by 30% the intensity of the contraction of the muscle) [2]: 30 nM
IC30 [3]: 21 nM
Lethal dose (dose causing the death of two out of three animals in 48 hours) (male NMRI mice): 228.3 mg/kg

Structure (SMILES): Oc1ccc2c(c1)CCCC2c1c[nH]cn1 (single isomer, unassigned; (+)) [Compound D, (+)-5,6,7,8-tetrahydro-5-(1H-imidazol-4-yl)-2-naphthalenol]
change in vivo at 1 µmol/kg [1, 4]: -30%
change in vivo at 1 µmol/kg [1, 5]: -50%
change in vivo at 1 µmol/kg [1, 6]: -17%
change in vivo at 1 µmol/kg [1, 7]: -31%
IC30 (concentration that reduces by 30% the intensity of the contraction of the muscle) [2]: 1.8 nM
IC30 [3]: 420 nM
Lethal dose (dose causing the death of two out of three animals in 48 hours) (male NMRI mice): > 68.6 mg/kg

Structure (SMILES): Cc1cccc2c1CCCC2c1c[nH]cn1 (stereo not drawn) [Compound B, 4-(1,2,3,4-tetrahydro-5-methyl-1-naphthalenyl)-1H-imidazole]
change in vivo at 3 µmol/kg [1, 4]: -33%
change in vivo at 3 µmol/kg [1, 5]: -48%
change in vivo at 3 µmol/kg [1, 6]: -16%
change in vivo at 3 µmol/kg [1, 7]: -29%
IC30 (concentration that reduces by 30% the intensity of the contraction of the muscle) [2]: 0.88 nM
IC30 [3]: 33 nM
Lethal dose (dose causing the death of two out of three animals in 48 hours) (male NMRI mice): > 67.9 mg/kg

Structure (SMILES): COc1ccc2c(c1)CCC2c1c[nH]cn1 (stereo not drawn) [Compound C, 4-(2,3-dihydro-5-methoxy-1H-inden-1-yl)-1H-imidazole]
change in vivo at 3 µmol/kg [1, 4]: -44%
change in vivo at 3 µmol/kg [1, 5]: -52%
change in vivo at 3 µmol/kg [1, 6]: -43%
change in vivo at 3 µmol/kg [1, 7]: -66%
IC30 (concentration that reduces by 30% the intensity of the contraction of the muscle) [2]: 32 nM
IC30 [3]: 100 nM
Lethal dose (dose causing the death of two out of three animals in 48 hours) (male NMRI mice): 214.3 mg/kg

Structure (SMILES): COc1cccc2c1CCCC2c1c[nH]cn1 (stereo not drawn) [Compound E, 4-(1,2,3,4-tetrahydro-5-methoxy-1-naphthalenyl)-1H-imidazole]
change in vivo at 1 µmol/kg [1, 4]: -45%
change in vivo at 1 µmol/kg [1, 5]: -31%
change in vivo at 1 µmol/kg [1, 6]: -20%
change in vivo at 1 µmol/kg [1, 7]: -13%
IC30 (concentration that reduces by 30% the intensity of the contraction of the muscle) [2]: 1.7 nM
IC30 [3]: 460 nM
Lethal dose (dose causing the death of two out of three animals in 48 hours) (male NMRI mice): 127.8 mg/kg

Structure (SMILES): Cl.Oc1cccc2c1CCCC2c1c[nH]cn1 (stereo not drawn) [Compound F, 5,6,7,8-tetrahydro-5-(1H-imidazol-4-yl)-1-naphthalenol hydrochloride]
change in vivo at 3 µmol/kg [1, 4]: -32%
change in vivo at 3 µmol/kg [1, 5]: -64%
change in vivo at 3 µmol/kg [1, 6]: -36%
change in vivo at 3 µmol/kg [1, 7]: -59%
IC30 (concentration that reduces by 30% the intensity of the contraction of the muscle) [2]: 3.7 nM
IC30 [3]: 230 nM
Lethal dose (dose causing the death of two out of three animals in 48 hours) (male NMRI mice): 214.3 mg/kg

Structure (SMILES): Cc1ccc2c(c1)CCCC2c1c[nH]cn1 (stereo not drawn) [Compound G, 4-(1,2,3,4-tetrahydro-6-methyl-1-naphthalenyl)-1H-imidazole]
change in vivo at 3 µmol/kg [1, 4]: -22%
change in vivo at 3 µmol/kg [1, 5]: -24%
change in vivo at 3 µmol/kg [1, 6]: -14%
change in vivo at 3 µmol/kg [1, 7]: -16%
IC30 (concentration that reduces by 30% the intensity of the contraction of the muscle) [2]: 30 nM
IC30 [3]: 72 nM
Lethal dose (dose causing the death of two out of three animals in 48 hours) (male NMRI mice): 118.9 mg/kg

Structure (SMILES): Cl.Oc1cc2c(cc1O)C(c1c[nH]cn1)CCC2 (stereo not drawn) [Compound K, 5,6,7,8-tetrahydro-5-(1H-imidazol-4-yl)-2,3-naphthalenediol hydrochloride]
change in vivo at 3 µmol/kg [1, 4]: -29%
change in vivo at 3 µmol/kg [1, 5]: -49%
change in vivo at 3 µmol/kg [1, 6]: -41%
change in vivo at 3 µmol/kg [1, 7]: -47%
IC30 (concentration that reduces by 30% the intensity of the contraction of the muscle) [2]: 16 nM
Lethal dose (dose causing the death of two out of three animals in 48 hours) (male NMRI mice): > 85.4 mg/kg

Structure (SMILES): NC(=O)c1cccc(Cc2c[nH]cn2)c1O [Mivazerol, 2-hydroxy-3-[(1H-imidazol-4-yl)methyl]benzamide hydrochloride, reference compound]
change in vivo at 3 µmol/kg [1, 4]: -1%
change in vivo at 3 µmol/kg [1, 5]: -34%
change in vivo at 3 µmol/kg [1, 6]: -6%
change in vivo at 3 µmol/kg [1, 7]: -22%

Structure (SMILES): Cc1cc(C(C)(C)C)c(O)c(C)c1CC1=NCCN1 [Oxymetazoline, 3-[(4,5-dihydro-1H-imidazol-2-yl)methyl]-6-(1,1-dimethylethyl)-2,4-dimethylphenol, reference compound]
change in vivo at 3 µmol/kg ([1]; 0.5 h, i.v. bolus, 3.2 × 10^-8 mole/kg, 30 minutes after administration, read-out: ΔT3 (anti-ischemic effect: change in elevation of the T wave, occlusion 3 vs occlusion 2)): -45%
change in vivo at 3 µmol/kg ([1]; 1 h, i.v. bolus, 3.2 × 10^-8 mole/kg, 60 minutes after administration, read-out: ΔT4 (anti-ischemic effect: change in elevation of the T wave, occlusion 4 vs occlusion 2)): -38%
change in vivo at 3 µmol/kg ([1]; 1 h, i.v. bolus, 3.2 × 10^-8 mole/kg, between 30 and 60 minutes after injection, read-out: ΔPb (maximum lowering of arterial pressure)): 0%
IC30 (concentration that reduces by 30% the intensity of the contraction of the muscle) [2]: 12 nM

IC30 [3]: 0.23 nM
Structure (SMILES): COc1cc2nc(N3CCN(C(=O)c4ccco4)CC3)nc(N)c2cc1OC [Prazosin, 1-(4-amino-6,7-dimethoxy-2-quinazolinyl)-4-(2-furanylcarbonyl)piperazine, reference compound]
anti-ischemic effect, in words ([1]; i.v., Table I): absence of a significant anti-ischemic effect

Structure (SMILES): CC(C)NCC(O)COc1cccc2ccccc12 (stereo not drawn) [Propranolol, 1-[(1-methylethyl)amino]-3-(1-naphthalenyloxy)-2-propanol, reference compound]
change in vivo at 3 µmol/kg ([1]; 0.5 h, i.v. bolus, 3.2 × 10^-6 mole/kg, 30 minutes after administration, read-out: ΔT3 (anti-ischemic effect: change in elevation of the T wave, occlusion 3 vs occlusion 2)): -21%
change in vivo at 3 µmol/kg ([1]; 0.5 h, i.v. bolus, 3.2 × 10^-6 mole/kg, between 5 and 30 minutes after injection, read-out: ΔPa (maximum lowering of arterial pressure)): 7%
change in vivo at 3 µmol/kg ([1]; 1 h, i.v. bolus, 3.2 × 10^-6 mole/kg, 60 minutes after administration, read-out: ΔT4 (anti-ischemic effect: change in elevation of the T wave, occlusion 4 vs occlusion 2)): -30%
change in vivo at 3 µmol/kg ([1]; 1 h, i.v. bolus, 3.2 × 10^-6 mole/kg, between 30 and 60 minutes after injection, read-out: ΔPb (maximum lowering of arterial pressure)): 5%
